Laboratory results as given in PMC11869128, “Bayesian Optimization over Multiple Experimental Fidelities Accelerates Automated Discovery of Drug Molecules” (ACS Central Science, 2025).
pIC50: −log10 of the molar value. Like-named read-outs stand apart in the source and are kept apart here. Values belong to the compound of their own block, whether it stands above or below them.

What was measured:
HDAC [1] = conditions: cited from earlier work
HDAC [2] = assay: HDAC fluorometric assay, dose-response curve (high fidelity); conditions: read-out: IC50 (Dose-Response Curve), manually synthesized molecules
Procedure: HDAC inhibition is automatically measured in a plate reader with a fluorometric assay (Abcam ab283378). In the plate-based assay, the liquid handler first dispenses individual purified products in dimethyl sulfoxide into each well, then adds buffer containing HDAC and a peptide substrate containing an acetylated lysine residue. The solution is agitated and incubated for 30 min at 37 °C, then a developer, which reacts with primary amines to form a fluorescent product, is dispensed and incubated for another 30 min. After the second incubation, the plate is transferred to the plate reader to measure fluorescence corresponding to uninhibited HDAC activity. The platform handles all aspects of the assay; dispensing reagents, timing incubation, transferring plates, preparing positive and negative controls, and analyzing fluorescent readouts without human input.

HDAC [3] = assay: HDAC fluorometric assay, single-point percent inhibition (medium fidelity); assay type: biochemical; conditions: for pIC50: first iteration, assuming binding follows the Hill equation and is noncooperative, assay run at 20 μM scale, read-out: IC50 corresponding to single point inhibition
Source text: In the first iteration, the experimental design algorithm recommended that 3,385 candidates be docked (39% of budget), 261 candidates screened for single-point percent inhibition (61% of budget), and no candidates be manually synthesized for full dose–response characterization (0% of budget). The total budget was 100.0 with the same experiment cost structure of 0.01 for docking, 0.2 for single-point, and 1.0 for dose response curve. Docking was automatically performed with DiffDock, and the resulting conformers scored based on their binding to the catalytic zinc ion and overlap with bound known inhibitors from X-ray crystallography. For the candidates selected for automatic synthesis, the reactions were batched by temperature into well plates to be run in parallel on the automated platform. With a maximum allowance of 6 well plates, the platform attempted to synthesize 79 candidates, with an average of 2.4 reaction steps required for each candidate. Based on observation of the expected mass-to-charge ratio (m/z) during automatic HPLC-MS analysis, 40 of the syntheses were successful. The successful syntheses were automatically purified with semipreparative HPLC, the concentration of the inhibitor was automatically estimated,[47] and the fluorometric inhibition assay was automatically run at 20 μM scale. The structures, synthesis plans, assay scores, and statistics for the attempted molecules are in the SI.

Compound: CCCC(CCC)C(=O)O [valproate]
- pIC50 (HDAC [1]; FDA approved nonhydroxamate inhibitor): 3.74

Compound: CCN(CC)Cc1ccc2cc(COC(=O)Nc3ccc(C(=O)NO)cc3)ccc2c1 [givinostat]
- pIC50 (HDAC [1]; FDA approved hydroxamate): 6.08

- pIC50 (HDAC [2]): 8.74
Compound: CC(/C=C/C(=O)NO)=C\[C@@H](C)C(=O)c1ccc(N(C)C)cc1 [trichostatin A]

- pIC50 (HDAC [3]): 5.14
Compound: O=[N+]([O-])c1ccc(N(S(=O)(=O)c2cccc3cccnc23)S(=O)(=O)C(F)(F)F)cc1 [c]

- pIC50 (HDAC [3]): 5.94
Compound: CC(C)(C)N(S(C)(=O)=O)S(=O)(=O)c1cccc(Br)c1 [a]

Compound: O=C1CCc2cc(Nn3cnnc3)ccc21 [5-((1,2,4-triazol-4-yl)amino)-indan-1-one]
- inhibition in the single-point assay (HDAC [3]; second iteration, automated synthesis and assay): 11%

- pIC50 (HDAC [3]): 5.48
Compound: Cc1ccc(S(=O)(=O)N(c2ccc([N+](=O)[O-])cc2)C2CCC2)cc1 [b]
